Measured values taken from article PMC11653257, “Organometallic Half-Sandwich Complexes of 8-Hydroxyquinoline-Derived Mannich Bases with Enhanced Solubility: Targeting Multidrug Resistant Cancer” (Inorganic Chemistry, 2024).
Values after ≈ are worked out from the molar mass of the structure shown. Where two headings read alike, the source gives them in different places.

Legend:
MES-SA/Dx5 [1] = conditions: monoculture, ref SI3, cited from earlier work
A431 = test system: A431; set-up: method as in earlier work; conditions: monoculture, 72 h, PrestoBlue; ref SI3; cited from earlier work
[2] = pKa of the ligands by UV–vis titration; format: physicochemical; conditions: for pKa: 0.20 M KNO3, UV–vis, I = 0.20 M KNO3, 10 equiv. EDTA
Protocol: (§1) Physico-chemical properties such as aqueous solubility, lipophilicity, and the actual protonation state at a given pH are known to influence the pharmacokinetic behavior of a drug.
(§2) An Agilent Cary 8454 diode array spectrophotometer was utilized to obtain UV–vis spectra in the wavelength range 190–1100 nm. The path length (l) was 1 or 2 cm in most cases (the actual l is always indicated in the legends of the figures). The concentrations of the ligands and complexes were between 36 and 100 μM. The ligands were titrated in the presence of 10 equiv of EDTA. Individual samples contained 0–37 μM HSA, 0–206 μM MIM, 0–759 μM AHA, or 0–733 μM FHA. Spectra were always background and baseline corrected. The computer program HypSpec[64] was used to obtain stability constants.

[3] = pKa of the ligands by 1H NMR titration; format: physicochemical; conditions: 0.20 M KNO3 with 10% (v/v) D2O, I = 0.20 M KNO3, 25.0 °C, read-out: pKa (OH)
Protocol: as §1
(§3) Bruker Avance III HD Ascend 500 Plus instrument (Billerica, MA, USA) was used for NMR studies. ^1H NMR spectroscopic measurements were carried out with a WATERGATE water suppression pulse scheme in the presence of 10% (v/v) D2O in most cases. DSS internal standard was added to samples to obtain reference peaks. ^1H NMR titrations were carried out in the presence of 0.20 M KNO3. The computer program HypSpec[64] was used to obtain equilibrium constants.

[4] = molecular target: human serum albumin (HSA), Trp214 / site I (Homo sapiens, UniProt P02768); assay: HSA Trp214 fluorescence quenching
human serum albumin (HSA), Trp214 / site I, sequence (P02768 25-609): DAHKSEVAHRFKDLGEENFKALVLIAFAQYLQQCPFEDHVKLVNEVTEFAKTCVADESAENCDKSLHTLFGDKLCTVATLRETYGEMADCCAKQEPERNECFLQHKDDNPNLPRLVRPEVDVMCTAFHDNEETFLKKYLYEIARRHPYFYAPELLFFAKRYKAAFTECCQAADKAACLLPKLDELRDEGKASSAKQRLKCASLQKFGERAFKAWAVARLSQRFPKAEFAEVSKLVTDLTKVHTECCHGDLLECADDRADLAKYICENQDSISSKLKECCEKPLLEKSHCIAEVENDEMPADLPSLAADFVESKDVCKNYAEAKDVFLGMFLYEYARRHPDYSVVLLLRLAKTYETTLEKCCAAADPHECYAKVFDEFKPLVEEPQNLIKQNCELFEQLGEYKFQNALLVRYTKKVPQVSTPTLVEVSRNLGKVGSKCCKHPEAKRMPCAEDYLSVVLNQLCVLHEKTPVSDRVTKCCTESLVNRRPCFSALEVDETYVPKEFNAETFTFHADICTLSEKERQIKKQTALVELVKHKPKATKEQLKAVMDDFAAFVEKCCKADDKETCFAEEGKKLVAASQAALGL
Protocol: (§6) Next, spectrofluorometric measurements were also performed to gain insight into the binding interactions that may occur in the hydrophobic binding sites of HSA. Tryptophan (Trp214) quenching experiments were conducted for the complexes (1–4) (for complex (3) see Figure S31) and their ligands). […] To monitor the binding at site II, site marker displacement experiments were performed using dansylglycine (DG).
(§7) Fluorescence measurements were carried out on a Fluoromax (Horiba Jobin Yvon, Longjumeau, France) spectrofluorometer using a 1 cm × 1 cm quartz cuvette. […] Excitation wavelengths were 295 nm for Trp-214 quenching and 340 nm for the DG displacement studies. The calculated conditional stability constants for HSA–complex species were obtained using the computer program HypSpec.[64] Calculations always were based on data obtained from at least two independent measurements.

A431-B1 = test system: A431-B1; set-up: method as in earlier work; conditions: monoculture, ref SI3, cited from earlier work
[5] = Thermodynamic aqueous solubility at pH 7.4; format: physicochemical; conditions: 10 mM HEPES buffer, thermodynamic from solid, pH 7.4 (10 mM HEPES), 25.0 °C, read-out: thermodynamic aqueous solubility S7.4
Protocol: The concentration of the compounds was determined by UV–vis spectrophotometry. For calibration, stock solutions of the compounds were used with known concentrations dissolved in 100% DMSO, 75% DMSO, and 50% (v/v) DMSO/buffered aqueous solutions.

[6] = molecular target: human serum albumin (HSA), site II (Homo sapiens, UniProt P02768); assay: HSA dansylglycine (DG) site marker displacement
human serum albumin (HSA), site II, sequence (P02768 25-609): as above
Protocol: as §6, §7

[7] = test system: methicillin-resistant S. aureus (MRSA) ATCC 43300; assay: Antibacterial MIC, MRSA; format: cell-based, Staphylococcus aureus; conditions: Mueller Hinton Broth, 37 °C, 18 h
Protocol: (§4) Escherichia coli (ATCC 25922) was used as Gram-negative strain and Staphylococcus aureus (ATCC 25923, methicillin-resistant (MRSA) ATCC 43300) strains were applied as Gram-positive bacterial cultures in the experiments. MIC values of the compounds were determined in 96-well plates based on the Clinical and Laboratory Standard Institute guidelines (CLSI guidelines).[76] The stock solutions of the compounds (same as those used for cytotoxicity experiments) were diluted in 100 μL of Mueller Hinton Broth. Then, 10^–4 dilution of an overnight bacterial culture in 100 μL of medium was added to each well, with the exception of the medium control wells.

MES-SA [8] = conditions: monoculture, PrestoBlue; ref SI3; cited from earlier work
[9] = test system: Escherichia coli (ATCC 25922); assay: Antibacterial MIC, E. coli; format: cell-based; conditions: Mueller Hinton Broth, 37 °C, 18 h
Protocol: as §4

Colo320 = assay: Cytotoxicity, Colo320; format: cell-based, human; conditions: this work
Description: Supplementary Information
(11 pictures or pasted objects on this page, not shown here)

[10] = n-octanol/water distribution coefficient (shake-flask); format: physicochemical; conditions: pH 7.4
Protocol: The exchange of the coligand (H2O/Cl^–) changes the overall charge of the complex, thus affecting lipophilicity. […] The traditional shake-flask method was used to obtain distribution coefficients of the ligands as well as of the complexes in n-octanol/buffered aqueous solution (20 mM phosphate, pH = 7.4) at different chloride ion concentrations (4, 24, and 100 mM) using UV–vis spectrophotometry (Agilent Cary 8454 diode array spectrophotometer, Santa Clara, CA, USA) for the analysis. The compounds were dissolved in buffered aqueous solutions previously saturated with n-octanol. Then the aqueous and n-octanol phases were gently mixed in different volume ratios (using 1:60 for the ligands, 1:1 for the RhCp* and 1:2 for the RuCym complexes ratios of n-octanol to buffered aqueous solution volume) for 4 h, followed by phase separation. Then the UV–vis spectrum of the aqueous or n-octanol phase was recorded and compared to the reference spectrum. Stock solutions were made in the aqueous phase, and distribution coefficients (DpH) were calculated by the following equation: [drawing 3]

[11] = test system: Staphylococcus aureus (ATCC 25923); assay: Antibacterial MIC, S. aureus; format: cell-based; conditions: Mueller Hinton Broth, 37 °C, 18 h
Protocol: as §4

MES-SA [12] = assay: Cytotoxicity in double coculture, MES-SA mCherry; conditions: read-out: IC50 MES-SA; double coculture with MES-SA/Dx5; 144 h; without TQ
Protocol: (§8) Therefore, the novel half-sandwich complexes (1–4) and their corresponding ligands were tested against a coculture of MES-SA and MES-SA/Dx5 cells expressing the fluorescent proteins mCherry or eGFP, respectively.[62]
(§9) MES-SA/B1 is a human MDR1-transfected derivative of MES-SA, and MES-SA mCherry, MES-SA/B1 mOrange, and MES-SA/Dx5 eGFP were engineered to stably express the respective fluorescent proteins previously.[62] Cells were kept in culture medium (DMEM) supplemented with 10% fetal bovine serum, 2 mM L-glutamine, 100 units/mL penicillin, and 100 μg/mL streptomycin (Thermo Fisher). One week before use, MES-SA/Dx5 eGFP cells were treated with 0.5 μM doxorubicin to ensure ABCB1/P-gp expression.
(§10) The tested compounds were dissolved in 50% (v/v) DMSO/PBS’ buffer to prepare 5–10 mM stock solutions, which were diluted in complete culture medium. Constitutive expression of the fluorescent proteins allowed multiplexing in cytotoxicity experiments.[62] […] Serial dilutions of the compounds were added 24 h after seeding. To address the effect of P-gp function, TQ was added at a nontoxic concentration (0.4 μM) 15 min before the test compounds. […] IC50 values and standard deviation were calculated from average pIC50 values from at least 3 independent measurements.

[13] = H2O/Cl– coligand exchange by UV–vis titration with chloride ions; format: physicochemical; conditions: RuCym complexes titrated at pH 6.0
Protocol: When the isolated complexes (1–4) are dissolved in water, their chlorido coligand can be replaced by water, or vice versa in the aqua complexes [M(arene)(HL)(H2O)]^2+, the H2O → Cl^– exchange process can take place in the presence of chloride ions. The chloride ion affinity of the complexes was also investigated by UV–vis spectrophotometry. RhCp* and RuCym complexes were titrated with chloride ions at pH 7.4 and 6.0, respectively. For this experiment, pH values were chosen at which the formation of the mixed hydroxido species is negligible. A representative spectrum series for complex (4) is shown in Figure S27, and the calculated conditional exchange constants (logK’ (H2O/Cl^–)) are given in Table 2 and in Figure S23. […] The complexes of the amino acid hybrids HQCl-D-Pro and HQCl-D-hPro have lower logK’ (H2O/Cl^–) constants most likely due to the repulsive effect of the nearby COO^– group.[26]

[14] = pKa of in situ prepared complexes by pH-potentiometry; format: physicochemical; conditions: I = 0.20 M KNO3
Description: (§5) The results, shown in Table 2, indicate good agreement between the data obtained by the different methods. It should be noted that these processes show overlap in all cases, and therefore, the assignment of the pKa values to the given moieties cannot be made reliably. However, by comparing the spectral changes with those observed for HQ and other simple derivatives,[25] it can be concluded that the lower pKa likely belongs to the deprotonation of the aqua coligand.
The pH-potentiometric measurements were carried out at 25.0 ± 0.1 °C in water in the pH range between 2.0 and 11.5 and at a constant ionic strength of 0.20 M KNO3. The titrations were performed in a carbonate-free KOH solution (0.20 M). The exact concentrations of the HNO3 and KOH solutions were determined by pH-potentiometric titrations. An Orion 710A pH-meter equipped with a Metrohm combined electrode (type 6.0234.100) and a Metrohm 665 Dosimat buret were used for this purpose. […] The average water ionization constant, pKw, was determined as 13.76 ± 0.01, which is in good agreement with the literature data.[67] The initial volume of the samples was 10.0 mL. […] Samples were degassed by bubbling purified argon through them for about 10 min prior to the measurements, and the inert gas was also passed over the solutions during the titrations. The computer program Hyperquad2013[64] was utilized to establish the stoichiometry of the species and to calculate the equilibrium constants.

[15] = pKa of in situ prepared complexes by 1H NMR titration; format: physicochemical; conditions: 1:1 system, I = 0.20 M KNO3
Description: as §5, §3

MES-SA/Dx5 [16] = assay: Cytotoxicity in double coculture, MES-SA/Dx5 eGFP; conditions: for SR = IC50 (MES-SA)/IC50 (MES-SA/Dx5): double coculture
Protocol: as §8, §9, §10

[17] = pKa of in situ prepared complexes by UV–vis titration; format: physicochemical; conditions: 1:1 system, absence of chloride, I = 0.20 M KNO3
Description: The UV–vis spectra of the complexes prepared in situ were then followed at different pH values in the absence of chloride ions. No spectral changes were observed between pH = 2–6.3 (RuCym) or 7.5 (RhCp*), indicating high solution stability in both cases; however, the changes were significant in the basic pH range (Figure S22). In the case of RuCym complexes, two overlapping processes associated with the deprotonation of the coordinated water molecule and the noncoordinated Npyr/pipH^+ moiety were observed. […] The pKa values determined for these processes are shown in Table 2 and Figure S23 together with the values obtained for complexes formed with the amino acid hybrids HQCl-D-Pro and HQCl-D-hPro (Chart 2) for comparison.[26]
as §2

[18] = pH 7.4, based on the pKa values

In the case of `Oc1c(CN2CCCC2)cc(Cl)c2cccnc12` [HQCl-pyr, 5-chloro-7-(pyrrolidin-1-ylmethyl)quinolin-8-ol], the IC50 (MES-SA/Dx5 [1]; PrestoBlue) is listed as 0.3 ± 0.06 µM, the “SR (MES-SA / MES-SA/Dx5)” value (MES-SA/Dx5 [1]; + 1 µM TQ) is listed as 1.35 and the “SR (MES-SA / MES-SA/Dx5)” value (MES-SA/Dx5 [1]) is listed as 11.53. The IC50 (A431) was 7.45 ± 0.15 µM, the pKa ([2]; read-out: pKa (Npyr/pipH+)) was 11.36 ± 0.1 and the pKa ([2]; read-out: pKa (NqH+)) was < 2. The pKa ([2]; read-out: pKa (OH)) was 7.53 ± 0.05, the “fraction of H2L+” value [2, 18] was 51% and the “fraction of HL” value [2, 18] was 49%. For the same compound, the pKa [3] was 7.65 ± 0.02, the Kd [4] was 25.1 µM and the IC50 (A431-B1; 72 h, PrestoBlue) was 1.97 ± 0.25 µM. The “SR (A431 / A431-B1)” value (A431-B1) was 3.79, the solubility thermodynamic [5] was 516 ± 2 µM (≈ 136 µg/mL) and the Kd [6] was 12.6 µM. For the same compound, the MIC ([7]; Staphylococcus aureus) was 50 µM (≈ 13.1 µg/mL), the IC50 (MES-SA [8]) was 3.46 ± 0.51 µM and the MIC ([9]; Escherichia coli, ATCC25922) was 50 µM (≈ 13.1 µg/mL). For the same compound, the “SR (Colo205 / Colo320)” value (Colo320) was 2.0, the logD at 4 h ([10]; n-octanol/buffered aqueous solution, n-octanol/H2O, read-out: log D7.4) was 1.83 and the MIC ([11]; Staphylococcus aureus, ATCC25923) was 50 µM (≈ 13.1 µg/mL).

For [RuCym(HQCl-Pip)Cl]Cl [(4)], the IC50 (MES-SA [12]) was 3.46 µM, the “logK’ (H2O/Cl–)” value [13] was 1.78 ± 0.02 and the “pKa (H2O)” value [14] was 8.43 ± 0.08. The “pKa (Npyr/pipH+)” value [14] was 10.07 ± 0.07, the “logK’(quenching)” value ([4]; 1 μM HSA, λEX = 295 nm (Trp-214), pH 7.4 (PBS’), […], 24 h) was 5.4 ± 0.2 and the “pKa (H2O)” value [15] was 8.50 ± 0.02. For the same compound, the “pKa (Npyr/pipH+)” value [15] was 10.19 ± 0.02, the “logK’(DG)” value ([6]; cHSA = cDG = 1 μM, λEX = 335 nm (DG), pH 7.4 (PBS’), […], 24 h) was 5.3 ± 0.1 and the MIC [7] was > 100 µM. The “SR = IC50 (MES-SA)/IC50 (MES-SA/Dx5)” value (MES-SA/Dx5 [16]; + 0.4 μM tariquidar (TQ)) was 0.2, the “SR = IC50 (MES-SA)/IC50 (MES-SA/Dx5)” value (MES-SA/Dx5 [16]; without TQ) was 1.8 and the IC50 (MES-SA/Dx5 [16]; read-out: IC50 MES-SA/Dx5, double coculture with MES-SA, 144 h, without TQ) was 1.92 µM. The MIC [9] was > 100 µM, the logD7.4 ([10]; c(Cl–) = 4 mM) was “+0.35 ± 0.02” and the logD7.4 ([10]; c(Cl–) = 24 mM) was “+0.72 ± 0.02”. For the same compound, the logD7.4 ([10]; c(Cl–) = 100 mM) was “+0.89 ± 0.02”, the “pKa (H2O)” value [17] was 8.39 ± 0.10 and the “pKa (Npyr/pipH+)” value [17] was 10.06 ± 0.05. The MIC [11] was > 100 µM.
